Laboratory results published in article PMC12675387, “Receptor interaction profiles of 4-alkoxy-2,6-dimethoxyphenethylamines (Ψ derivatives) and related amphetamines” (Frontiers in Pharmacology, 2025).

Legend:
human TAAR1 = biological target: T1, human TAAR1 (Homo sapiens, UniProt Q96RJ0); experiment: Activation potency at human TAAR1 (cAMP assay, HEK 293 cells); type: cell-based
T1 construct: expressed in transfected cells; host or cells: HEK 293 cells
T1 sequence (Q96RJ0 1-339): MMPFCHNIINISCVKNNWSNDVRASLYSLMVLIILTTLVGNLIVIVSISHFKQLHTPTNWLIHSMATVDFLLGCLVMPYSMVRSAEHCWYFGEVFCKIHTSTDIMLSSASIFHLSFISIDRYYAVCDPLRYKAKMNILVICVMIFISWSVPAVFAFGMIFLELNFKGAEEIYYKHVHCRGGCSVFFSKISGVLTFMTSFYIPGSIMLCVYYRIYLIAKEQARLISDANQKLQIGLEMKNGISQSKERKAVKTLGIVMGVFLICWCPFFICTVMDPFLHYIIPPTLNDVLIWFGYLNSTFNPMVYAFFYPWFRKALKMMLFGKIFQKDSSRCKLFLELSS
Description: The activation potency at the human TAAR1 was determined as previously described by [Luethi et al. (2018)]. In summary, recombinant HEK 293 cells stably transfected with the human TAAR1 were grown in culture flasks composed of 30 mL high glucose DMEM with 10% heat inactivated fetal calf serum, […] Geneticin, and […] hygromycin B at 37 °C and 5% CO2. The cells were grown to 80%–90% confluency before collection. The cells were washed with phosphate-buffer saline (PBS) and 5 mL of trypsin/EDTA solution were added for 5 min at 37 °C to detach the cells from the flask. Then, 45 mL of fresh medium were added to the flask and the total mixture was put into a falcon tube, which was centrifuged for 3 min at 900 rpm at room temperature. The supernatant was aspirated, and the remaining cell pellet was resuspended in fresh medium to a concentration of 5 × 10^5 cells per mL. Next, 100 μL of the cell mixture was transferred to a 96 well plate (BIOCOAT 6640, Becton Dickinson, Allschwil, Switzerland) and incubated for 20 h at 37 °C. For the cAMP assay, the medium was removed and replaced with 50 μL PBS lacking calcium or magnesium ions. The PBS was extracted via snap inversion and the plate was gently tapped on tissue to remove any remaining PBS solution. The plate was then incubated with Krebs-Ringer Bicarbonate buffer (90 μL/well; KRB, Sigma-Aldrich) containing 1 mM IBMX for 1 h at 37 °C and 5% CO2/95% air. Test compounds were investigated in duplicate at various concentrations ranging from 300 pM to 30 μM. A cAMP standard curve (concentration range of 0.13 nM–10 μM) was included on each 96 well plate. Additionally, a reference plate was used containing RO5256390, β-phenylethylamine and p-tyramine. Cells were incubated with either 30 μL of compound solution, β-phenylethylamine (which represented the maximal response) or a basal control in PBS (supplemented with 1 mM IBMX) for 40 min at 37 °C. Thereafter, the cells were incubated with 50 μL of 3× detection mix solution (consisting of Ru-cAMP Alexa700 anti-cAMP antibody and lysis buffer) for 40 min at 37 °C, while covered with black lids and under forceful shaking. The fluorescence (456 nm excitation wavelength; 630 and 700 nm emission wavelengths) was measured using a NanoScan reader (Innovate Optische Messtechnik, Berlin, Germany) and the FRET signal was calculated using the following equation: FRET (700 nm) – P × FRET (630 nm). P was equal to Ru (700 nm)/Ru (630 nm).

[1] = cited from earlier work
h5-HT1A receptor = biological target: T2, h5-HT1A receptor (Homo sapiens, UniProt P08908); experiment: Radioligand binding, 5-HT1A receptor ([3H]8-OH-DPAT)
T2 sequence (P08908 1-422): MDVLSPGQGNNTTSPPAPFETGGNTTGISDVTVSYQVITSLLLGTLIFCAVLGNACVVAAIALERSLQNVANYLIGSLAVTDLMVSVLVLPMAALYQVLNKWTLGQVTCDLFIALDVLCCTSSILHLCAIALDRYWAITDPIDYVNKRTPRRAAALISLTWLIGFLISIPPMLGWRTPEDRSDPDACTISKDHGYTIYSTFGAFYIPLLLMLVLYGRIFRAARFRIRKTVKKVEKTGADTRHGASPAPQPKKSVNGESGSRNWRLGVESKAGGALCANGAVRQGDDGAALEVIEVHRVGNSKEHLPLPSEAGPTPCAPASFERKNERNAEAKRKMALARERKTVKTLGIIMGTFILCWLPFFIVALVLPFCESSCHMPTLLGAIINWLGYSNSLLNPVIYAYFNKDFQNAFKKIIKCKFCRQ

hα1A adrenergic receptor = biological target: T3, hα1A adrenergic receptor (Homo sapiens, UniProt P35348); experiment: Radioligand binding, α1A adrenergic receptor ([3H]prazosin); details: hα1A Ki ± SD
T3 sequence (P35348 1-466): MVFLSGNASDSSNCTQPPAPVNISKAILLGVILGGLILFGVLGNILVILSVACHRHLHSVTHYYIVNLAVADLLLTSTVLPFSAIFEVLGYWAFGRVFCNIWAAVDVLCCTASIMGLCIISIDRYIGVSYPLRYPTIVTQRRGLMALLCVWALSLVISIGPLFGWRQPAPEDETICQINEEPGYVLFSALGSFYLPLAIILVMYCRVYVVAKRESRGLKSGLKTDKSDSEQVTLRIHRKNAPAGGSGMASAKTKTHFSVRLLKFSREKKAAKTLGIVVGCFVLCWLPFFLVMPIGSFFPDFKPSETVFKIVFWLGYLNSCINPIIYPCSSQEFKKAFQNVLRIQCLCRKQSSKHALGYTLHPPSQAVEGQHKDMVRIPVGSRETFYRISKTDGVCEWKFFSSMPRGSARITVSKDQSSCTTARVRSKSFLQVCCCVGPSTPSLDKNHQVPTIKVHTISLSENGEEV

hD2 receptor = hD2 receptor (Homo sapiens, UniProt P14416); experiment: Radioligand binding, dopaminergic D2 receptor ([3H]spiperone)
[2] = anecdotal, ref Shulgin and Shulgin, 1991

Chain of hD2 receptor (P14416 whole entry): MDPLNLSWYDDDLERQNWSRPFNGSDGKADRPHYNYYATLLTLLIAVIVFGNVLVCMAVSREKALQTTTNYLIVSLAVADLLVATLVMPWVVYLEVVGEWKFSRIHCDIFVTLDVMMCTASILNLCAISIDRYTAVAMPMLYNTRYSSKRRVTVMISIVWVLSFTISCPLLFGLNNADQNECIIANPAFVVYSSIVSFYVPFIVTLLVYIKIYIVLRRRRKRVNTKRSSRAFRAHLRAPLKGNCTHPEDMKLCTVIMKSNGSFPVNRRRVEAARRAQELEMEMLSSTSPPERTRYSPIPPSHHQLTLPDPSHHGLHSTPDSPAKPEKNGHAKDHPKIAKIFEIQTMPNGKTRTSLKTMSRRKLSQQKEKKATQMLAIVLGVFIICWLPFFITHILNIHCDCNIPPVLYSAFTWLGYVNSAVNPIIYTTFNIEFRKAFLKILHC

## COc1cc(OC(F)F)cc(OC)c1CCN [Ψ-2C-O-35, 4-(2,2-difluoromethoxy)-2,6-dimethoxyphenethylamine]
Human TAAR1
  EC50: > 30 µM
[1]; initial doses, anecdotal, ref Trachsel et al., 2013
  dose with some psychoactivity in humans: 17 mg
h5-HT1A receptor
  Ki: 4.44 µM
hα1A adrenergic receptor
  Ki: 2.1 µM
hD2 receptor
  Ki: > 6 µM

## C=C(C)COc1cc(OC)c(CC(C)N)c(OC)c1 (stereo not shown) [Ψ-MMALM, 2,6-dimethoxy-4-methallyloxyamphetamine]
Human TAAR1
  EC50: 2.5 µM
h5-HT1A receptor
  Ki: > 5.6 µM
hα1A adrenergic receptor
  Ki: 2.2 µM
hD2 receptor
  Ki: > 6 µM

## COc1cc(OC(F)F)cc(OC)c1CC(C)N (stereo not shown) [Ψ-DODFMO, 4-(2,2-difluoromethoxy)-2,6-dimethoxyamphetamine]
Human TAAR1
  EC50: > 30 µM
h5-HT1A receptor
  Ki: 5.1 µM
hα1A adrenergic receptor
  Ki: 5.9 µM
hD2 receptor
  Ki: > 6 µM

## C=CCOc1cc(OC)c(CC(C)N)c(OC)c1 (stereo not shown) [Ψ-MALM, 4-allyloxy-2,6-dimethoxyamphetamine]
Human TAAR1
  EC50: > 30 µM
h5-HT1A receptor
  Ki: > 5.6 µM
hα1A adrenergic receptor
  Ki: 1.4 µM
hD2 receptor
  Ki: > 6 µM

## COc1cc(OCC(F)(F)F)cc(OC)c1CCN [Ψ-2C-O-22, 2,6-dimethoxy-4-(2,2,2-trifluoroethoxy)phenethylamine]
Human TAAR1
  EC50: 0.047 ± 0.022 µM
h5-HT1A receptor
  Ki: 2.4 µM
hα1A adrenergic receptor
  Ki: 2 µM
hD2 receptor
  Ki: > 6 µM

## CCOc1cc(OC)c(CCN)c(OC)c1 [Ψ-2C-O-2, 2,6-dimethoxy-4-ethoxyphenethylamine]
Human TAAR1
  EC50: 0.23 ± 0.17 µM
h5-HT1A receptor
  Ki: 0.71 ± 0.03 µM
hα1A adrenergic receptor
  Ki: 3.3 µM
hD2 receptor
  Ki: > 6 µM

## COc1cc(OCCF)cc(OC)c1CC(C)N (stereo not shown) [Ψ-MFEM, 2,6-dimethoxy-4-(2-fluoroethoxy)amphetamine]
Human TAAR1
  EC50: 1.9 µM
h5-HT1A receptor
  Ki: > 5.6 µM
hα1A adrenergic receptor
  Ki: 6.7 µM
hD2 receptor
  Ki: > 6 µM

## COc1cc(OCc2ccccc2)cc(OC)c1CC(C)N (stereo not shown) [Ψ-MBnM, 4-benzyloxy-2,6-dimethoxyamphetamine]
Human TAAR1
  EC50: > 30 µM
h5-HT1A receptor
  Ki: > 5.6 µM
hα1A adrenergic receptor
  Ki: 5.8 µM
hD2 receptor
  Ki: > 6 µM

## COc1cc(OCC(F)F)cc(OC)c1CC(C)N (stereo not shown) [Ψ-MDFEM, 4-(2,2-difluoroethoxy)-2,6-dimethoxyamphetamine]
Human TAAR1
  EC50: 0.85 ± 0.5 µM
h5-HT1A receptor
  Ki: > 5.6 µM
hα1A adrenergic receptor
  Ki: 3.9 µM
hD2 receptor
  Ki: > 6 µM

## COc1cc(OCCF)cc(OC)c1CCN [Ψ-2C-O-21, 2,6-dimethoxy-4-(2-fluoroethoxy)phenethylamine]
Human TAAR1
  EC50: 0.08 ± 0.043 µM
h5-HT1A receptor
  Ki: 1.6 µM
hα1A adrenergic receptor
  Ki: 4.6 µM
hD2 receptor
  Ki: > 6 µM

## COc1cc(OCc2ccccc2)cc(OC)c1CCN [Ψ-2C-O-27, 4-benzyloxy-2,6-dimethoxyphenethylamine]
Human TAAR1
  EC50: 3 µM
h5-HT1A receptor
  Ki: 2.1 µM
hα1A adrenergic receptor
  Ki: 3.6 µM
hD2 receptor
  Ki: > 6 µM

## COc1cc(OC)c(CCN)c(OC)c1 [Ψ-2C-O-1, 2,4,6-trimethoxyphenethylamine]
Human TAAR1
  EC50: 2.3 µM
[1]; doses up to 300 mg
  activity in humans: inactive
h5-HT1A receptor
  Ki: 0.96 ± 0.09 µM
hα1A adrenergic receptor
  Ki: > 8.8 µM
hD2 receptor
  Ki: > 6 µM

## CCOc1cc(OC)c(CC(C)N)c(OC)c1 (stereo not shown) [Ψ-MEM, 2,6-dimethoxy-4-ethoxyamphetamine]
Human TAAR1
  EC50: 2.2 µM
h5-HT1A receptor
  Ki: > 5.6 µM
hα1A adrenergic receptor
  Ki: 6.01 µM
hD2 receptor
  Ki: > 6 µM

## C=CCOc1cc(OC)c(CCN)c(OC)c1 [Ψ-2C-O-16, 4-allyloxy-2,6-dimethoxyphenethylamine]
Human TAAR1
  EC50: 0.034 ± 0.015 µM
h5-HT1A receptor
  Ki: 0.91 ± 0.06 µM
hα1A adrenergic receptor
  Ki: 0.67 ± 0.06 µM
hD2 receptor
  Ki: > 6 µM

## COc1cc(OCC(F)(F)F)cc(OC)c1CC(C)N (stereo not shown) [Ψ-MTFEM, 2,6-dimethoxy-4-(2,2,2-trifluoroethoxy)amphetamine]
Human TAAR1
  EC50: 1.1 µM
h5-HT1A receptor
  Ki: > 5.6 µM
hα1A adrenergic receptor
  Ki: 6.1 µM
hD2 receptor
  Ki: > 6 µM

## COc1cc(OCC(F)F)cc(OC)c1CCN [Ψ-2C-O-21.5, 4-(2,2-difluoroethoxy)-2,6-dimethoxyphenethylamine]
Human TAAR1
  EC50: 0.041 ± 0.009 µM
h5-HT1A receptor
  Ki: 1.3 µM
hα1A adrenergic receptor
  Ki: 2 µM
hD2 receptor
  Ki: > 6 µM

## C=C(C)COc1cc(OC)c(CCN)c(OC)c1 [Ψ-2C-O-3, 2,6-dimethoxy-4-methallyloxyphenethylamine]
Human TAAR1
  EC50: 0.1 ± 0.06 µM
h5-HT1A receptor
  Ki: 1.01 µM
hα1A adrenergic receptor
  Ki: 0.99 ± 0.02 µM
hD2 receptor
  Ki: > 6 µM

## COc1cc(OC)c(CC(C)N)c(OC)c1 (stereo not shown) [TMA-6, 2,4,6-trimethoxyamphetamine]
Human TAAR1
  EC50: > 30 µM
[1]; [2]
  duration of effects in humans: 12 to 16 h
  psychoactive dose in humans: 25 to 50 mg
h5-HT1A receptor
  Ki: > 5.6 µM
hα1A adrenergic receptor
  Ki: > 8.8 µM
hD2 receptor
  Ki: > 6 µM
